Experimental data published in patent US6514540B1, “Therapeutic composition including plantain and aloe vera for treatment of arthritis and other afflictions” (priority 1999, dated 2003).

Tested on: arthritic symptoms
Assay: Clinical trials: topical application for arthritis symptoms
Type: in vivo, human
Conditions: Subject No. 1, inflamed finger joint; injected locally and up to 80 mg orally over four to five months
Method: In addition, the entire finger and part of the hand was affected by the pain and the swelling resulting in restricted use of the hand.
The steroids were both injected locally and ingested in the form of up to 80 mg of prednazone, which was taken orally over a period of four to five months.
During this period, the frequency of the application of the cream or lotion and heat gradually diminished to three times per day without a need for augmentation of the treatment with heat.
Onset of these symptoms can result in a two- to three-fold increase in the size of a joint, with an inflammation of the surrounding tissue. This can occur in a matter of hours and affects the associated limb resulting in substantial pain, a loss of strength in the entire limb, sleep interruption (due to pain), and general malaise due to the intensity and continuous nature of the throbbing.

C[C@]12C=CC(=O)C=C1CC[C@@H]1[C@@H]2C(=O)C[C@@]2(C)[C@H]1CC[C@]2(O)C(=O)CO [prednazone]
relief of pain and swelling by conventional steroid treatment: some initial success in relieving both the pain and swelling, but upon elimination of the drug, the symptoms returned
